Results published in patent publication US20030203035A1, “Allergen neutralization compositions” (The Procter & Gamble Company, priority 2000, published 2003).

Target: T1, Der f 2 mite extract (Dermatophagoides farinae, UniProt Q00855)
T1 construct: Add 1.0 ml of 20 ug/ml Der f 2 mite extract; from tissue; host or cells: house dust mite extract (Dermatophagoides farinae)
T1 sequence (Q00855 18-146): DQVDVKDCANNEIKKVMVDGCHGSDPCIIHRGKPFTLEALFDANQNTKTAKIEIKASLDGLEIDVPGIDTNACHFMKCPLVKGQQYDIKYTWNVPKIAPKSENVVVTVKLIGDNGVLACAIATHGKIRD
Assay: Efficacy Determination Protocol, ELISA (allergen neutralization)
Assay type: biochemical
Settings: for Average Absorbance / % of Allergen Remaining: 1.4 wt.% of ion; for Average Absorbance: 490 nm, water control 1.7; for % of Allergen Remaining: Der f 2, normalized to water control = 100
From the text: The efficacy of an allergen neutralization composition can be determined by the ELISA protocol. Enzyme-linked immunosorbent assay (“ELISA”) is a highly sensitive assay technique for detection and measurement of antigens or antibodies in solution. The assay uses enzyme-linked antigens or antibodies to amplify an antigen-antibody reaction. A single enzyme-linked antibody-antigen complex can convert orders of magnitude more of colorless substrate molecules into detectable colored products, thus considerably amplifying the original antigen-antibody reaction. The antigen or antibody is adsorbed onto the surface of the well of a microtiter plate, and all the relevant reactions take place in solution inside the well. While the following protocol will be easily understood by those skilled in the art, for a more detailed explanation please see Konishi, E. and Uehara, K. Enzyme-linked immunosorbent assay for quantifying antigens of Dermatophagoides farinae and D. pteronyssinus (Acari: Pyroglyphidae) in house dust samples, 1990, Entomologist Society of America, 27 (6), p. 993-998.
It is understood that those skilled in the art of allergen suppression will be aware of numerous variations to the protocol given below. For example, the monoclonal antibody may be substituted with a similar antibody, for example Der f 1 for Der f 2. But a standard, in this case water, is used and the results for the samples that contain active ingredients are normalized against the standard and the results reported as percentage of allergen remaining That is, the amount of allergen that is not neutralized. Thus, the allergen neutralization results for similar, but not identical antibodies should be substantially the same when normalized to the standard. Both Der f 1 and Der f 2 were tested for various compositions, but Der f 2 was chosen as the standard for the present Efficacy Determination Protocol because it is more difficult to neutralize. To be clear, the values for the % of allergen remaining that are reported in Table I will generally improve (that is, decrease) when tested with Der f 1.
At least two samples are prepared. One sample contains only distilled water and samples of one or more allergen neutralization compositions containing the allergen neutralization active, for example ZnCl2, tannin, etc. The samples are all treated according to the same protocol, and the distilled water sample is used as the control. All samples are prepared as follows:
1) Add 1.0 ml of 20 ug/ml Der f 2 mite extract to 0.8 ml of the sample composition (either the allergen neutralization composition or water for the control). Mix well and let sit for 1 hour at room temp.
2) Add 2.2 ml of 20% skim milk in Phosphate Buffer Saline (PBS).
3) Mix well by vortexing and centrifuge at 12000 rpm (approx. 17000×g) for 1 hour.
4) The supernatant is used for the ELISA protocol.
Each well of a microplate is coated at 4° C. overnight with 100 μl of Der f 2 monoclonal antibody (clone 15E11, from Asahi Breweries., AB-A-4) at a protein concentration of […] of Phosphate Buffer Saline (PBS), pH 7.4 containing 0.1% sodium azide. The monoclonal antibody is discarded and the plate is incubated with 100 μL of 1% BSA PBS containing 0.1% sodium azide for 1 hour. The plate is washed 3 times with PBS containing 0.05% Tween 20 (PBS-T). 100 μl of an allergen sample is added and incubated for 1 hour at 37° C.
Use 3× dilutions of a reference Dermatophagoides farinae crude extract (commercially available from LSL) to make the standard curve. The curve is made using 6.9 nanogram-mite extract equivalent/ml to 5 microgram-mite extract equivalent/ml. Wash plate with PBS-T for 3 times. 100 μl of Horse Radish Peroxidase (HRP) conjugated anti Der f 2 antibody (clone 13A4) is added at 40 ng/ml and the plate is incubated at 37° C. for 1 hour. The plate is then washed with PBS-T 3 times and then washed with water 3 times. […]

[1] = weight % of metal ion in the composition, inferred from Table III

O=S(=O)([O-])[O-].[Fe+2] [FeSO4]
Average Absorbance (pH 3.5): 1.13
% of Allergen Remaining (pH 3.5): 54%

[Cl-].[Cl-].[Zn+2] [ZnCl2, Zinc chloride]
Average Absorbance (pH 3.6): 0.70
% of Allergen Remaining (pH 3.6): 34%

O=S(=O)([O-])[O-].[Sn+2] [SnSO4]
Average Absorbance (pH 2.0): 0.28
% of Allergen Remaining (pH 2.0): 22%

[Cl][Fe][Cl] [FeCl2]
Average Absorbance (pH 2.9): 0.84
% of Allergen Remaining (pH 2.9): 44%

[Cl][Sn][Cl] [SnCl2]
Average Absorbance (pH 2.1): 0.54
% of Allergen Remaining (pH 2.1): 32%
Average Absorbance (pH 3.2): 0.25
% of Allergen Remaining (pH 3.2): 18%
effective amount if 80% removal is necessary [1]: about 1.4%
effective amount to remove 50% of allergens [1]: less than 1.4%
